According to patent publication US20250281478A1, “METHODS FOR PREVENTING OR TREATING KIDNEY DISEASES” (JEAMOON BEIJING CO., LTD., priority 2022, published 2025):

What was measured:
Format in all cases: in vivo, C57BL/6N mice
[1] = tested on: mice with adenine-induced renal failure; test: Renal fibrosis by Masson's trichrome staining in adenine-induced renal failure mice; settings: TAK875 30 mg/kg p.o. QD for 2 weeks; 3 weeks of modeling; FIG. 6
Protocol: Mice were modeled and administered drugs as described in Example 3. After two weeks of drug administration, the mice were euthanized, and their kidneys were fixed, sectioned, stained with Masson's trichrome, and analyzed.
Whole-slide scanning was performed using a fully automated digital pathology scanner KF-PRO-120 from Ningbo Jiangfeng Bioinformatics Technology Co., Ltd. Masson-stained images were analyzed using the Area Quantification module in HALO software. The blue staining of collagen fibers was used as the unified criterion for positivity. The images were analyzed, and the percentage of blue-stained collagen fibers in the tissue was calculated.
Statistical analysis was conducted using GraphPad Prism 8.0. Continuous data for each group were expressed as mean+SD. One-way ANOVA was used for multi-group comparisons, and Student's t-test was used for comparisons between two groups. A p-value<0.05 was considered statistically significant. For categorical data, chi-square tests were used for comparisons among groups, and a p-value<0.05 was considered statistically significant.

[2] = tested on: mice with adenine-induced renal failure; test: Serum creatinine (CREA) in adenine-induced renal failure mice
Protocol: (§1) • a) Control group: Fed with adenine-free feed; other procedures were the same as those in the model group. • b) Model group: Fed with feed containing 0.25% adenine for modelling. • c) LY-10 mg/kg group: Model+LY2922470 (10 mg/kg, p.o., QD). • d) LY-30 mg/kg group: Model+LY2922470 (30 mg/kg, p.o., QD). • e) LY-60 mg/kg group: Model+LY2922470 (60 mg/kg, p.o., QD). • f) TAK875 group: Model+TAK875 (30 mg/kg, p.o., QD).
(§2) Except for the control group, all other mice were fed with a diet containing 0.25% adenine for modelling. The control group was fed with a normal diet. All mice were allowed free access to food. One week after modeling, each group of mice was administered the respective treatment via oral gavage once daily in the afternoon for two consecutive weeks. The control group and the model group received vehicle under a same condition. The adenine-containing diet was continuously administered for modeling throughout the treatment period until the end of the experiment. The physical condition of the mice was monitored, and body weight was measured and recorded weekly. Blood samples were collected from the orbital venous plexus at 1 week (post-modeling) and 3 weeks (after 2 weeks of treatment). Serum was separated for the measurement of serum creatinine (CRE) and blood urea nitrogen (BUN). At the end of the two-week treatment, renal function of each group was assessed using a TGFR renal function monitoring and smart analysis system. After testing, tissues were collected from the mice to confirm the efficacy of the treatment.
(§3) Statistical analyses were performed using GraphPad Prism 8.0 software. Continuous data of each group were expressed as mean+SD. One-way ANOVA was used for multi-group comparisons, and Student's t-test was used for comparisons between two groups. A p-value<0.05 was considered statistically significant. For categorical data, chi-square tests were used to compare between groups, with p<0.05 indicating a statistically significant difference.
(§4) Mice were fed a 0.25% adenine-containing diet. After one week, the mice were treated with LY2922470 or TAK875. During the treatment period, the adenine-containing diet was continued for modeling. After three weeks of adenine feeding (i.e., two weeks of drug administration), blood samples were collected from the mice, and serum was isolated for CREA and BUN measurements.

[3] = tested on: mice with sustained adenine-induced renal failure; test: Glomerular filtration rate in mice with sustained adenine-induced renal failure (TGFR system); settings: TAK875 30 mg/kg p.o. QD for 2 weeks; 3 weeks continuous 0.25% adenine diet; FIG. 4
Protocol: as §1, §2, §3
One week later, LY2922470 or TAK875 was administrated for treatment. […]

[4] = tested on: mice with adenine-induced renal failure; test: Blood urea nitrogen (BUN) in adenine-induced renal failure mice
Protocol: as §1, §2, §3, §4

[5] = tested on: mice with adenine-induced renal failure; test: Survival of mice with adenine-induced renal failure; settings: TAK875 30 mg/kg p.o. QD
Protocol: • 1. Experimental Animals: C57BL/6N, 8 weeks old, SPF grade, male. • 2. Experimental Drugs: • LY2922470 (Shanghai Taoshu Biotechnology Co., Ltd.) • TAK875 (Shanghai Taoshu Biotechnology Co., Ltd.)
1) Preparation of TAK875: A total of 27 mg of TAK875 powder was accurately weighed using an analytical balance and dissolved in 9 mL of 0.8% CMC-Na solution. The mixture was sonicated for 5 minutes to form a 3 mg/mL white suspension. The suspension was stored at 4° C. for later use.
2) Preparation of LY2922470: A total of 80 mg of LY2922470 yellow crystals was added to 200 μL of DMSO to form a clear yellow solution. The solution was gradually added in batches to 10 mL of 0.8% CMC-Na solution. After heating and sonication for 5 hours, an 8 mg/mL white suspension of LY2922470 was obtained. The suspension was stored at 4° C. for later use.
Eight-week-old male C57BL/6N mice were acclimatized for one week and then randomly divided into six groups. Except for the control group, all mice were fed a 0.25% adenine-containing diet for modelling. The control group received a normal diet. The mice had free access to food. One week after model induction, mice in each group were orally administered the corresponding drug once daily in the afternoon, according to their group assignment. The control group and the model group received vehicle under a same condition. During the treatment period, the adenine-containing diet was continued. Mouse survival was monitored until the end of the experiment.

[6] = TAK875 30 mg/kg p.o. QD for 2 weeks
[7] = TAK875 30 mg/kg p.o. QD, mean ± SD

For Cc1cc(OCCCS(C)(=O)=O)cc(C)c1-c1cccc(COc2ccc3c(c2)OC[C@H]3CC(=O)O)c1 [TAK875], the “Degree of renal fibrosis compared to the model group (Masson staining)” value [1] was “not significantly reduced”, the “CREA level compared with the model group” value [2, 6] was “did not significantly reduce” and the “CREA after modeling for 3 weeks (after drug administration for 2 weeks)” value [2, 7] was 137.68 ± 30.23 µmol/L. The “GFR compared with the model group” value [3] was “increased”, the “BUN level compared with the model group” value [4, 6] was “did not significantly reduce” and the “BUN after modeling for 3 weeks (after drug administration for 2 weeks)” value [4, 7] was 25.07 ± 4.91 mmol/L. For the same molecule, the “BUN after modeling for 1 week (before drug administration)” value ([4]; baseline of the TAK875 30 mg/kg group, mean ± SD) was 11.25 ± 3.98 mmol/L, the “Survival Rate (%)” value ([5]; started 1 week after start of continued 0.25% adenine diet, end of experiment, 30 mg/kg) was 46.2% and the “Count after Drug Administration (surviving mice)” value ([5]; 13 at enrollment) was 6.
